Source: ChEMBL document CHEMBL1201862, “PubChem BioAssay data set” (2004)
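Step 1: Grow cells in 96-well plates. Step 2: Expose to compound for 48 hours at 5 concentrations. Step 3: Interpolate endpoints linearly; if unreached, use highest concentration. GI50 marks 50% less growth.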 Active and inactive are the calls of the source. Rule as the data show it: active = GI50 up to about 1.1 µM and inactive = higher.

Legend:
Assay in all cases: DTP human tumour cell line panel, 48 h
MDA-N = test system: MDA-N
MOLT-4 = test system: MOLT-4
SW-620 = test system: SW-620
T47D = test system: T47D
A498 = test system: A498
SF-268 = test system: SF-268
PC-3 = test system: PC-3
HCC 2998 = test system: HCC 2998
SNB-19 = test system: SNB-19
COLO 205 = test system: COLO 205
RXF 393 = test system: RXF 393
786-0 = test system: 786-0
HL-60 = test system: HL-60
NCI-H23 = test system: NCI-H23
NCI-H226 = test system: NCI-H226
MDA-MB-435 = test system: MDA-MB-435
MDA-MB-231 = test system: MDA-MB-231
HT-29 = test system: HT-29
NCI-H460 = test system: NCI-H460
DU-145 = test system: DU-145
SF-539 = test system: SF-539
SN12C = test system: SN12C
SK-MEL-2 = test system: SK-MEL-2
SNB-75 = test system: SNB-75
SK-OV-3 = test system: SK-OV-3
NCI-H522 = test system: NCI-H522
Hs-578T = test system: Hs-578T
HCT-116 = test system: HCT-116
HOP-92 = test system: HOP-92
A549 = test system: A549
U-251 = test system: U-251
ACHN = test system: ACHN
SK-MEL-5 = test system: SK-MEL-5
NCI/ADR-RES = test system: NCI/ADR-RES
Malme-3M = test system: Malme-3M
UACC-62 = test system: UACC-62
OVCAR-8 = test system: OVCAR-8
HOP-62 = test system: HOP-62
M14 = test system: M14
SF-295 = test system: SF-295
SR = test system: SR
CCRF-CEM = test system: CCRF-CEM
OVCAR-5 = test system: OVCAR-5
OVCAR-4 = test system: OVCAR-4
BT-549 = test system: BT-549
KM12 = test system: KM12
IGROV-1 = test system: IGROV-1
CAKI-1 = test system: CAKI-1
TK-10 = test system: TK-10
K562 = test system: K562
OVCAR-3 = test system: OVCAR-3
HCT-15 = test system: HCT-15
SK-MEL-28 = test system: SK-MEL-28
UO-31 = test system: UO-31
UACC-257 = test system: UACC-257
EKVX = test system: EKVX
LOX IMVI = test system: LOX IMVI
MCF7 = test system: MCF7

## O=[N+]([O-])c1ccc(NN/N=N/c2ccc(-c3nc4ccccc4[nH]3)cc2)c([N+](=O)[O-])c1
MDA-N
  GI50: 39.9 µM (inactive)
MOLT-4
  GI50: 5.14 µM (inactive)
SW-620
  GI50: 68.5 µM (inactive)
T47D
  GI50: 30.1 µM (inactive)
A498
  GI50: 25.6 µM (inactive)
SF-268
  GI50: 26.1 µM (inactive)
PC-3
  GI50: 27.8 µM (inactive)
HCC 2998
  GI50: 31 µM (inactive)
SNB-19
  GI50: > 100 µM (inactive)
COLO 205
  GI50: 27.7 µM (inactive)
RXF 393
  GI50: 47.3 µM (inactive)
786-0
  GI50: 36.3 µM (inactive)
HL-60
  GI50: 13.8 µM (inactive)
NCI-H23
  GI50: 29 µM (inactive)
NCI-H226
  GI50: 43.2 µM (inactive)
MDA-MB-435
  GI50: 54 µM (inactive)
MDA-MB-231
  GI50: > 100 µM (inactive)
HT-29
  GI50: 36.5 µM (inactive)
NCI-H460
  GI50: 9.44 µM (inactive)
DU-145
  GI50: 66.1 µM (inactive)
SF-539
  GI50: 40.9 µM (inactive)
SN12C
  GI50: 64.6 µM (inactive)
SK-MEL-2
  GI50: 29 µM (inactive)
SNB-75
  GI50: 96.6 µM (inactive)
SK-OV-3
  GI50: 94.6 µM (inactive)
NCI-H522
  GI50: 17.9 µM (inactive)
Hs-578T
  GI50: 64.9 µM (inactive)
HCT-116
  GI50: 26.7 µM (inactive)
HOP-92
  GI50: 43.8 µM (inactive)
A549
  GI50: 58.3 µM (inactive)
U-251
  GI50: 53.7 µM (inactive)
ACHN
  GI50: 19.4 µM (inactive)
SK-MEL-5
  GI50: 10.4 µM (inactive)
NCI/ADR-RES
  GI50: 45.7 µM (inactive)
Malme-3M
  GI50: 75 µM (inactive)
UACC-62
  GI50: 4.06 µM (inactive)
OVCAR-8
  GI50: 22.5 µM (inactive)
HOP-62
  GI50: 42.6 µM (inactive)
M14
  GI50: 23.1 µM (inactive)
SF-295
  GI50: 4.2 µM (inactive)
SR
  GI50: 2.74 µM (inactive)
CCRF-CEM
  GI50: 9.04 µM (inactive)
OVCAR-5
  GI50: > 100 µM (inactive)
OVCAR-4
  GI50: 28.6 µM (inactive)
BT-549
  GI50: 48.3 µM (inactive)
KM12
  GI50: 31.9 µM (inactive)
IGROV-1
  GI50: 7.33 µM (inactive)
CAKI-1
  GI50: 23.2 µM (inactive)
TK-10
  GI50: > 100 µM (inactive)
K562
  GI50: 6.52 µM (inactive)
OVCAR-3
  GI50: 28.4 µM (inactive)
HCT-15
  GI50: 19.7 µM
SK-MEL-28
  GI50: > 100 µM (inactive)
UO-31
  GI50: 84.1 µM (inactive)
UACC-257
  GI50: 76.7 µM (inactive)
EKVX
  GI50: 17.4 µM (inactive)
LOX IMVI
  GI50: 7.48 µM (inactive)
MCF7
  GI50: 4.27 µM (inactive)
